# Data reported in patent US7053108B2, “Indoline compounds” (Les Laboratoires Servier, priority 2002, dated 2006).
# Legend:
# Format in all cases: in vivo
# 5-HT2c receptors = molecular target: T1, 5-HT2c receptors (Rattus norvegicus, UniProt P08909); experiment: Penile erection test following administration of Ro 60-0175 (1.25 mg/kg, s.c.) in the rat; conditions: Wistar rat; for % inhibition of penile erections: Ro 60-0175 1.25 mg/kg s.c. 30 min later
# T1 construct: from tissue; host or cells: whole living male Wistar rat (in vivo)
# T1 sequence (P08909 33-460): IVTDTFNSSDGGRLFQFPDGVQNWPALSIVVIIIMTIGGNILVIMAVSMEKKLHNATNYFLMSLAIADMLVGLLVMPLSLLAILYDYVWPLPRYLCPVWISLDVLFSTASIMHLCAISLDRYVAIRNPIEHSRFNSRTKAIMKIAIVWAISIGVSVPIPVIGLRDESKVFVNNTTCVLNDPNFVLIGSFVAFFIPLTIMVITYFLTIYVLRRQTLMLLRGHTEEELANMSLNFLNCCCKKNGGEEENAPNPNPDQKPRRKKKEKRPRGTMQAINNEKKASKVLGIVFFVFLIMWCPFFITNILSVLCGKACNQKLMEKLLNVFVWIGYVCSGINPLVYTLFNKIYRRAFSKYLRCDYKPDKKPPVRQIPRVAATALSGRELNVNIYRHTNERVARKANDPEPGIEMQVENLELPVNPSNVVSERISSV
# Method: Penile Erection Test Following Administration of Ro 60-0175 (1.25 mg/kg, s.c.) in the Rat
# This test allows evaluation of the capacity of pharmacological agents to inhibit penile erections caused by administration of a selective 5-HT2c agonist, Ro 60-0175. Inhibition is therefore predictive of antagonist activity with respect to 5-HT2c receptors. Male rats of the Wistar strain (Iffa-Credo, L'Arbresle, France) weighing 120–140 g on the day of the experiment are placed separately in plexiglass observation boxes (7.5×18×30 cm) immediately after the compound or the carrier has been administered. Thirty minutes later, Ro 60-0175 (1.25 mg/kg, s.c.) is administered to the animals and the number of erections occurring during the next 30 minutes is counted.
# [1] = Social interaction test in the rat; conditions: 1 hour before the test, Sprague-Dawley rat, carrier 183 ± 7
# Method: Social Interaction Test in the Rat
# This test allows evaluation of the potential anxiolytic activity of the compounds. Male rats of the Sprague-Dawley strain (Charles River, Saint-Aubin-les-Elbeuf, France) weighing 240–260 g on arrival are isolated in individual cages for 5 days in dimly lit animal quarters (3–10 lux). The test is carried out on the final day and consists of placing the animals in pairs, matched by weight (±5 g), in a brightly lit enclosure (300 lux) for 10 minutes. The time spent by the animals in interacting with one another (grooming, chasing, . . . ) is measured. The compound or the carrier is administered to the animals 1 hour before the test, each couple receiving the same treatment. The anxiolytic effect of a compound is reflected by an increased duration of interaction compared to that of animals to whom the carrier has been administered.
# Vogel conflict test = conditions: 30 minutes before test, 3 minutes, Wistar rat, carrier 77.1 ± 14.7
# Method: The test is carried out in a transparent plastics cage (32×25×30 cm) located in a soundproofed and ventilated enclosure. The cage has a chrome steel floor. The metal tip of the drink-containing bottle enters the cage at a height of 6 cm above the metal floor. The floor and the tip of the bottle are connected by electric cables to an “Anxiometer” apparatus (Columbus Instruments, Ohio, USA), which records the licks of the animal and controls the administration of electric shocks.
# For the 4 days preceding the test, the rats (male Wistar rats weighing 250–270 g) (3 per cage) have access to drink for only one hour per day. On the day before the test, the animals are isolated in cages, on grills, without food or drink, immediately after their final hour of access to drink. The test takes place on the 5th day. On the day of the test, the animal is given by gavage (p.o.) either the solvent (suspension of distilled water+Tween 80) (control) or the compound, 30 minutes before being placed in the test cage. The session begins as soon as the animal has carried out 20 licks and has received a first electric shock (between the metal tip and metal floor), (constant current, 0.5 sec. duration, 0.3 mA intensity). Subsequently, the animal receives an electric shock each time it carries out 20 licks, for a period of 3 minutes. Animals not having performed the first 20 licks of the session by the end of 5 minutes are withdrawn from the test. The results are the numbers of licks performed by the animal during the 3 minutes of the test.
# [2] = system: extracellular concentrations of dopamine and noradrenaline in the frontal cortex; experiment: Measurement of the extracellular concentrations of dopamine and noradrenaline in the frontal cortex of the conscious rat (microdialysis); conditions: 40.0 mg/kg p.o., 30 minutes post administration, frontal cortex dialysate
# Method: Measurement of the Extracellular Concentrations of Dopamine and Noradrenaline in the Frontal Cortex of the Conscious Rat
# Dialysis. The surgery is performed under pentobarbital-induced anaesthesia (60 mg/kg, i.p.). The rats are placed in a Kopf stereotaxic device and a cannula guide (CMA Microdialysis AB, Stockholm, Sweden) is implanted in the frontal cortex at the coordinates: anteroposterior: +2.2, lateral: ±0.6, ventral deviation: −0.2. The rats are placed in separate cages and recover from the anaesthesia over 5 days. […]
# Chromatography. Dopamine (DA) and noradrenaline (NA) are simultaneously measured as follows: 20 μl of dialysate sample are diluted with 20 μl of mobile phase (75 mM NaH2PO4, 20 μM EDTA, 1 mM sodium decanesulphonate, 17.5% methanol, 0.01% triethylamine, pH: 5.70) and 33 μl are analysed by HPLC using, for separation, an inversephase column (Hypersil C18, 150×4.6 mm; particle size 5 μm) thermostatically controlled at 43° C. and, for quantification, a coulometric detector (ESA5014, Coulochem II, ESA, Chelmsford, USA). […]
# The compound of Example 1 (40.0 mg/kg, p.o.) causes a substantial increase in the extracellular concentrations of DA and NA in the dialysates collected from the frontal cortex of conscious rats. The data are expressed as the mean ±S.E.M. The levels of DA and NA are expressed with respect to the mean values before administration of the drug. […]
structure (smiles),measurement,setting,value
"O=C(Nc1cccnc1)N1CCc2c1ccc1ccccc21 [Example 1, N-(3-Pyridyl)-1,2-dihydro-3H-benzo[e]indole-3-carboxamide]",% inhibition of penile erections,5-HT2c receptors; 0.25 mg/kg p.o.,12%
same,% inhibition of penile erections,5-HT2c receptors; 0.63 mg/kg p.o.,16%
same,% inhibition of penile erections,5-HT2c receptors; 1.00 mg/kg p.o.,50%
same,% inhibition of penile erections,5-HT2c receptors; 2.5 mg/kg p.o.,88%
same,% inhibition of penile erections,5-HT2c receptors; 10.0 mg/kg p.o.,100%
same,ED50,"5-HT2c receptors; po, inhibition of Ro 60-0175-induced penile erections, p.o., read-out: ID50 (inhibitory dose50)",1.16 mg/kg
same,Duration of social interactions (s) mean ± s.e.m. (n),[1]; 0.16 mg/kg p.o.,187 ± 11 (5) s
same,Duration of social interactions (s) mean ± s.e.m. (n),"[1]; 0.63 mg/kg p.o., p < 0.05",228 ± 11 (5) s
same,Duration of social interactions (s) mean ± s.e.m. (n),"[1]; 2.5 mg/kg p.o., p < 0.05",242 ± 15 (5) s
same,Duration of social interactions (s) mean ± s.e.m. (n),"[1]; 10.0 mg/kg p.o., p < 0.05",233 ± 10 (5) s
same,Punished licks (1 shock/20 licks) Mean ± s.e.m. (n),Vogel conflict test; 2.5 mg/kg p.o.,92.2 ± 20.7 (5)
same,Punished licks (1 shock/20 licks) Mean ± s.e.m. (n),Vogel conflict test; 10.0 mg/kg p.o.,145.2 ± 46.3 (5)
same,Punished licks (1 shock/20 licks) Mean ± s.e.m. (n),"Vogel conflict test; 40.0 mg/kg p.o., p < 0.05",324.4 ± 70.7 (10)
same,Extracellular DA level with respect to the mean values before administration (mean ±S.E.M.),"[2]; solvent = +3.9±9.8, in % (unit assumed)",+95.0±12.9
same,Extracellular NA level with respect to the mean values before administration (mean ±S.E.M.),"[2]; solvent = +8.7±11.9, in % (unit assumed)",+118.2±16.7
